Assay results as given in patent publication US20240254087A1, “SELECTIVE, PARTIAL, AND ARRESTIN-BIASED 5-HT2A AGONISTS WITH UTILITY IN VARIOUS DISORDERS” (Saint Joseph's University, priority 2021, published 2024).
Read-outs that look alike come from different tables or passages of the source.

Experiments:
Design in all cases: expressed in transfected cells; host or cells: HEK293T, transient
[1] = target: T1, 5-HT2A (Homo sapiens, UniProt P28223); assay: cell-based; conditions: for Emax: read-out: 5-HT2A Gq Emax (% 5-HT), BRET, mean ± SEM
T1 sequence (P28223 whole entry): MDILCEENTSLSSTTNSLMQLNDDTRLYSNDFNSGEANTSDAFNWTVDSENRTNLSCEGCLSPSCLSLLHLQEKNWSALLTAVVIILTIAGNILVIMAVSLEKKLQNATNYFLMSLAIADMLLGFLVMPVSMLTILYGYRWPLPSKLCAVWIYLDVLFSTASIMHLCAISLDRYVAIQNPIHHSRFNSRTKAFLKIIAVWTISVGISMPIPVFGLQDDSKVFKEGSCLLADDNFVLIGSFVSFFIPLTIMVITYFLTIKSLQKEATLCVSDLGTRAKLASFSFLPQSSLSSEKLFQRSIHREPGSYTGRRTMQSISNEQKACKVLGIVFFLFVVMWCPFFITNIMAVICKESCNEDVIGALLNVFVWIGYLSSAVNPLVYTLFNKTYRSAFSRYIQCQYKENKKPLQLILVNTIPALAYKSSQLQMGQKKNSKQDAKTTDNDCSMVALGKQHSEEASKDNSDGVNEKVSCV
Experimental: (§1) After at least 18-24 hours, transfected cells were plated in poly-lysine coated 96-well white clear bottom cell culture plates in DMEM containing 1% dialyzed FBS at a density of 25-40,000 cells in 200 μL per well and incubated overnight. After approximately 20-24 hours, media was decanted and cells were washed with 60 μL of drug buffer (1×HBSS, 20 mM HEPES, pH 7.4), followed by 60 μL of drug buffer and pre-incubated in a humidified atmosphere at 37° C. before receiving drug stimulation. Drug stimulation was induced by adding 30 μL of a solution of drug (3X) diluted in McCorvy buffer (1×HBSS, 20 mM HEPES, pH 7.4, supplemented with 0.3% BSA fatty acid free, 0.03% ascorbic acid) and plates were incubated at the indicated time and temperature. Fifteen minutes before reading, 10 μL of the RLuc substrate, either coelenterazine h for β-Arrestin recruitment BRET^1 or coelenterazine 400a for Gq dissociation BRET^2 (Prolume/Nanolight, 5 μM final concentration) was addedper well. […] The BRET ratios of fluorescence/luminescence were calculated per well and were plotted as a function of drug concentration using Graphpad Prism 8 (Graphpad Software Inc., San Diego, CA).

[2] = target: T1, 5-HT2A; assay: cell-based; conditions: for Emax: read-out: 5-HT2A β-arrestin Emax (% 5-HT), BRET, mean ± SEM; for EC50 / 5-HT2A β-arrestin Emax (% 5-HT) / 5-HT2A β-arrestin recruitment pEC50: BRET, mean ± SEM; for EC50: read-out: 5-HT2A β-arrestin recruitment pEC50 (converted)
Experimental: as §1

[3] = target: 5-HT2B (Homo sapiens, UniProt P41595); assay: BRET Gq dissociation, 5-HT2B; type: cell-based
Chain of 5-HT2B (P41595 whole entry): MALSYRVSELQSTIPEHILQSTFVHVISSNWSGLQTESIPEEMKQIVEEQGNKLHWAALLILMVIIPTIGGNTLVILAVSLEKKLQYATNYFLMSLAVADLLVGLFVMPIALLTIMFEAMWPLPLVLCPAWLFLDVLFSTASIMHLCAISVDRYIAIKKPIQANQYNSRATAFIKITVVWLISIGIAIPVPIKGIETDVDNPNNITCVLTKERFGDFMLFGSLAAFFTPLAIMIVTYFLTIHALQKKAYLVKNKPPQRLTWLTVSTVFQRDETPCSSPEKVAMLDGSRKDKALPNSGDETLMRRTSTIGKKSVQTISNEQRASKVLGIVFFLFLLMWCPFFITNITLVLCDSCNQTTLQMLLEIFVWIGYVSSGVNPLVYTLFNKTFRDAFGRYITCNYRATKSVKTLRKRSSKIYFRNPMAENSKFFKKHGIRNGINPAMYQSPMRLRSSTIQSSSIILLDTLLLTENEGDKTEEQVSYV
Experimental: After at least 18-24 hours, transfected cells were plated in poly-lysine coated 96-well white clear bottom cell culture plates in DMEM containing 1% dialyzed FBS at a density of 25-40,000 cells in 200 μL per well and incubated overnight. After approximately 20-24 hours, media was decanted and cells were washed with 60 μL of drug buffer (1×HBSS, 20 mM HEPES, pH 7.4), followed by 60 μL of drug buffer and pre-incubated in a humidified atmosphere at 37° C. before receiving drug stimulation. Drug stimulation was induced by adding 30 μL of a solution of drug (3X) diluted in McCorvy buffer (1×HBSS, 20 mM HEPES, pH 7.4, supplemented with 0.3% BSA fatty acid free, 0.03% ascorbic acid) and plates were incubated at the indicated time and temperature. Fifteen minutes before reading, 10 μL of the RLuc substrate, either coelenterazine h for β-Arrestin recruitment BRET^1 or coelenterazine 400a for Gq dissociation BRET^2 (Prolume/Nanolight, 5 μM final concentration) was addedper well. Plates were read for luminescence at 485 nm and fluorescent eYFP emission at 530 nm for BRET^1 and at 400 nm and fluorescent GFP2 emission at 510 nm for BRET2 at 1 second per well using a Mithras LB940 (Berthold). The BRET ratios of fluorescence/luminescence were calculated per well and were plotted as a function of drug concentration using Graphpad Prism 8 (Graphpad Software Inc., San Diego, CA).

[4] = target: T2, 5-HT2C (Homo sapiens, UniProt P28335); assay: BRET Gq dissociation, 5-HT2C; type: cell-based; conditions: for Emax: read-out: 5-HT2C Gq Dissociation (BRET) EMAX ± SEM (%5-HT); for EC50: read-out: 5-HT2C Gq Dissociation (BRET) pEC50 ± SEM (converted)
T2 sequence (P28335 33-458): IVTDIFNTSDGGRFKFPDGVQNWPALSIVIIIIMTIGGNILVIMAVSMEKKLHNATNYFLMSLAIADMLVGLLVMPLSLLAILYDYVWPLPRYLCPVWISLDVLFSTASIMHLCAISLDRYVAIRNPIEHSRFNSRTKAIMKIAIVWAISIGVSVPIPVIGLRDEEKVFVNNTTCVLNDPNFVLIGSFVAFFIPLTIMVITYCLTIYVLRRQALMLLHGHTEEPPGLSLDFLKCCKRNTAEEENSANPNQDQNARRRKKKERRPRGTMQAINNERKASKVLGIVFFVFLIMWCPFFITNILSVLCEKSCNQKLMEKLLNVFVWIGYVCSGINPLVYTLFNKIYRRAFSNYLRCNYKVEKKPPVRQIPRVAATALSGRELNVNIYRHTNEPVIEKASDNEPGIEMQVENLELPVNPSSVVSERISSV
Experimental: as §1

[5] = BRET, mean ± SEM, read-out: 5-HT2A Gq dissociation pEC50 (converted)

| SMILES | Emax [1] | Emax [2] | EC50 [1, 5] | EC50 [2] | 5-HT2B Gq Dissociation (BRET) EMAX ± SEM (%5-HT) [3] | 5-HT2B Gq Dissociation (BRET) pEC50 ± SEM [3] | Emax [4] | EC50 [4] | EC50 [1] | 5-HT2A Gq Emax (% 5-HT) ([1]; BRET, mean ± SEM) | 5-HT2A Gq dissociation pEC50 ([1]; BRET, mean ± SEM) | 5-HT2A β-arrestin Emax (% 5-HT) [2] | 5-HT2A β-arrestin recruitment pEC50 [2] |
| --- | --- | --- | --- | --- | --- | --- | --- | --- | --- | --- | --- | --- | --- |
| COc1cc(CCNCc2cccc3ccccc23)c(OC)cc1C [25D-N1-Nap (27)] | 34.3 ± 2.9% | 75.5 ± 2.4% | – | – | – | – | – | – | – | – | – | – | – |
| COc1cc(CCNCc2ccccc2-c2ccccc2)c(OC)cc1C [25D-NBPh (28)] | 23.2 ± 4.8% | 107 ± 4.7% | – | – | – | – | – | – | – | – | – | – | – |
| Brc1c2c(c(CCNCc3cccc4ccccc34)c3c1OCC3)OCC2 [(29)] | 31.8 ± 1.4% | 62.5 ± 2.3% | 8.71 nM | 1.02 nM | No activity | No activity | 78.1 ± 2.1% | 4.17 nM | – | – | – | – | – |
| COc1cc(Br)c(CCNCc2cccc3ccccc23)cc1OC [(30)] | 32.3 ± 1.6% | 65.1 ± 3% | 42.7 nM | 4.47 nM | No activity | No activity | 81.4 ± 3.4% | 66.1 nM | – | – | – | – | – |
| COc1cc(CCNCc2cccc3ccccc23)cc(OC)c1Br [(31), 2-(4-bromo-3,5-dimethoxyphenyl)-N-[(naphthalen-1-yl)-methyl]ethan-1-amine] | 20.3 ± 1.9% | 50.8 ± 3.4% | – | 35.5 nM | No activity | No activity | 80.2 ± 2.2% | 41.7 nM | 170 nM | – | – | – | – |
| COc1cc(Br)cc(OC)c1CCNCc1cccc2ccccc12 [(32)] | 33 ± 1.1% | 85.5 ± 2% | 3.89 nM | 1.05 nM | No activity | No activity | 81 ± 1.6% | 6.31 nM | – | – | – | – | – |
| COc1cc(Br)cc(OC)c1CC(C)NCc1cccc2ccccc12 (centres unmarked) [(33)] | 36.6 ± 1.1% | 98.3 ± 3.3% | 31.6 nM | 4.9 nM | No activity | No activity | 80.3 ± 2.4% | 64.6 nM | – | – | – | – | – |
| COc1cc(Cl)ccc1CCNCc1cccc2ccccc12 [(34)] | 25.2 ± 2% | 83.6 ± 3.6% | – | – | No activity | No activity | 75.9 ± 1.7% | 38 nM | – | – | – | – | – |
| COc1cc(Br)c(Br)c(OC)c1CCNCc1cccc2ccccc12 [(35)] | 30.2 ± 1.5% | – | 3.89 nM | 1.95 nM | No activity | No activity | 69.8 ± 1.3% | 5.5 nM | – | – | – | – | – |
| COc1cc(Br)ccc1CCNCc1cccc2ccccc12 [(36)] | 26.3 ± 1.2% | 80.2 ± 3.1% | – | – | No activity | No activity | 76 ± 1.8% | 24.5 nM | – | – | – | – | – |
| CCOc1ccc(CCNCc2cccc3ccccc23)cc1OC [(37)] | 29.3 ± 1.9% | 75.4 ± 2.4% | – | – | No activity | No activity | 84.5 ± 2.8% | 263 nM | – | – | – | – | – |
| COc1cc(CCNCc2cccc3ccccc23)ccc1Cl [(40)] | 29.9 ± 1.8% | 80.8 ± 3.8% | – | – | No activity | No activity | 87.8 ± 2% | 97.7 nM | – | – | – | – | – |
| COc1cc(Br)ccc1CCNCc1cccc(C)c1O [(41)] | 68.7 ± 1.3% | 86.6 ± 3.9% | 2.24 nM | 2.51 nM | No activity | No activity | 72.2 ± 1.6% | 4.9 nM | – | – | – | – | – |
| COc1cc(Br)cc(OC)c1CCNCc1cccc(C)c1O [(42)] | 69.2 ± 1.5% | 78.9 ± 3.7% | 1.1 nM | 0.513 nM | No activity | No activity | 78.1 ± 1.6% | 1.51 nM | – | – | – | – | – |
| COc1cc(CCNC2CCc3ccccc32)c(OC)cc1C (centres unmarked) [(83)] | 50.7 ± 7% | 112 ± 11.5% | 6.31 nM | 8.13 nM | – | – | – | – | – | – | – | – | – |
| COc1cc(CCNC2CCc3cccc(O)c32)c(OC)cc1C (centres unmarked) [(84)] | 71.9 ± 4.9% | 113 ± 4.3% | 2.69 nM | 3.47 nM | – | – | – | – | – | – | – | – | – |
| COc1cc(CCNC2Cc3ccccc3C2)c(OC)cc1C [(85)] | 53.5 ± 4.3% | 70.9 ± 5.1% | 17.8 nM | 5.13 nM | – | – | – | – | – | – | – | – | – |
| COc1cc(CCN)c(OC)cc1Br [Compound 2C-B, reference compound] | – | – | – | – | 97.4 ± 1.4 %5-HT | 7.90 ± 0.04 | – | – | – | 100.8 ± 0.9 % 5-HT | 8.92 ± 0.03 | 84.0 ± 1.0 % 5-HT | 8.62 ± 0.04 |
| CN(C)CCc1c[nH]c2ccccc12 [DMT, reference compound] | – | – | – | – | – | – | – | – | – | 76 ± 2 % 5-HT | 7.17 ± 0.07 | 64 ± 3 % 5-HT | 7.12 ± 0.13 |
